# From patent publication US20170216315A1 (priority 2016, published 2017)
# Marks after values point to notes of the source that are not given here.
# How the values were obtained:
# [1] = tested on: LXR-α, SREBP-1c, ACC, FAS, ME; experiment: Expressions of lipid synthesis-related genes in liver (real-time PCR); type: in vivo, mice; settings: EK100 1, 5, 10 mg/kg/day vs EtOH group, p<0.05, FIG. 4
# Experimental: C-4 was put into a 0.8 ml RNAlater containing an RNA stabilizer (Qiagen company, United States), and then the commercial kit (E.Z.N.A™ Tissue RNA kit, purchased from Omega Bio-Tek company, United States) was used to extract the mRNA therein. After that, the mRNA sample obtained therefrom was reverse transcribed to provide cDNA, and then specific primers (as shown in Table 2) were used to conduct real-time polymerase chain reaction (real-time PCR) of the cDNA to observe the expression of each gene in the mouse liver, wherein the operation steps of the real-time polymerase chain reaction were as follows: (i) 2 μl of cDNA (50 ng/μl), 5 μl of SYBR Green (Molecular Probes company, United States, Applied Biosystems/Fast SYBR® Green Master Mix), 2 μl of RNase-free water, 1 μl of forward primer, and 1 μl of reverse primer were well mixed and then centrifuged; (ii) the above sample was put into a real-time polymerase chain reaction system (Applied Biosystems/StepOne Real time PCR system) to detect the expression of each gene, wherein the expression of GAPDH was used as the […] control.
# It has been known that LXR-α, SREBP-1c, ACC, FAS, ME, etc. are genes related to lipid synthesis, thus, the expressions of the above genes in mouse liver of each group were compared by the analysis method of [Preparation Examples] D-2.
# [2] = tested on: catalase (CAT); experiment: Activity of CAT in mouse liver; type: in vivo, mice; settings: for Activity of CAT: liver homogenate, alcoholic liquid diet, 4 weeks
# [3] = tested on: glutathione peroxidase (GPx); experiment: Activity of GPx in mouse liver; type: in vivo, mice; settings: for Activity of GPx: liver homogenate, alcoholic liquid diet, 4 weeks
# [4] = tested on: IL-1β; experiment: Concentration of IL-1β in liver (ELISA); type: in vivo, mice; settings: EK100 1, 5, 10 mg/kg/day vs EtOH group; p<0.05; FIG. 9B
# Source text: D-3 were taken and diluted with Calibrator Diluent RD 5-17 to ⅓ of the original concentration respectively, and then a Quantikine® Rat TNF-α or a Quantikine® Rat IL-1β commercial kit (purchased from R&D Systems company, United States) was used for the Enzyme-linked immune-sorption assay (ELISA) to measure the amounts of tumor necrosis factor-alpha (TNF-α) and interleukin-1β (IL-1β) therein. […]
# [5] = tested on: TLR4, MyD88, NF-κB, iNOS, COX-2, α-SMA; experiment: Expressions of pro-inflammatory genes in liver (real-time PCR); type: in vivo, mice; settings: EK100 1, 5, 10 mg/kg/day vs EtOH group, p<0.05, FIG. 10
# Experimental: C-4 was put into a 0.8 ml RNAlater containing an RNA stabilizer (Qiagen company, United States), and then the commercial kit (E.Z.N.A™ Tissue RNA kit, purchased from Omega Bio-Tek company, United States) was used to extract the mRNA therein. After that, the mRNA sample obtained therefrom was reverse transcribed to provide cDNA, and then specific primers (as shown in Table 2) were used to conduct real-time polymerase chain reaction (real-time PCR) of the cDNA to observe the expression of each gene in the mouse liver, wherein the operation steps of the real-time polymerase chain reaction were as follows: (i) 2 μl of cDNA (50 ng/μl), 5 μl of SYBR Green (Molecular Probes company, United States, Applied Biosystems/Fast SYBR® Green Master Mix), 2 μl of RNase-free water, 1 μl of forward primer, and 1 μl of reverse primer were well mixed and then centrifuged; (ii) the above sample was put into a real-time polymerase chain reaction system (Applied Biosystems/StepOne Real time PCR system) to detect the expression of each gene, wherein the expression of GAPDH was used as the positive control.
# [6] = tested on: male C57BL/6 mice; experiment: TBARS value of liver homogenate; settings: for TBARS value: liver homogenate, alcoholic liquid diet, 4 weeks
# [7] = tested on: male C57BL/6 mice; experiment: Amount of glutathione (GSH) in liver homogenate; settings: for Amount of GSH: liver homogenate, alcoholic liquid diet, 4 weeks
# [8] = EK100 1, 5, 10 mg/kg/day vs EtOH group, p<0.05
compound,measurement,setting,value
CC(C)[C@@H](C)/C=C/[C@@H](C)[C@H]1CC[C@H]2C3=CCC4C[C@@H](O)CC[C@]4(C)C3=CC[C@]12C (stereo partly shown) [EK100],Expressions of lipid synthesis-related genes in liver compared to EtOH,[1],significantly decreased
same,Activity of CAT in liver compared to EtOH,[2]; [8],significantly increased
same,Activity of CAT,[2]; EK100_1X: 1 mg/kg/day gavage,175.80 ± 6.89^a unit/mg protein
same,Activity of CAT,[2]; EK100_5X: 5 mg/kg/day gavage,145.43 ± 5.77^b unit/mg protein
same,Activity of CAT,[2]; EK100_10X: 10 mg/kg/day gavage,137.16 ± 6.79^bc unit/mg protein
same,Activity of GPx in liver compared to EtOH,"[3]; EK100 10 mg/kg/day (EK100_10X) vs EtOH group, p<0.05",significantly increased
same,Activity of GPx,[3]; EK100_1X: 1 mg/kg/day gavage,114.16 ± 2.40^b unit/mg protein
same,Activity of GPx,[3]; EK100_5X: 5 mg/kg/day gavage,110.74 ± 3.52^b unit/mg protein
same,Activity of GPx,[3]; EK100_10X: 10 mg/kg/day gavage,131.89 ± 6.83^a unit/mg protein
same,Concentration of IL-1β in liver compared to EtOH,[4],significantly decreased
same,Expressions of pro-inflammatory genes in liver compared to EtOH,[5],significantly decreased
same,TBARS value of liver compared to EtOH,[6]; [8],significantly decreased
same,TBARS value,[6]; EK100_1X: 1 mg/kg/day gavage,0.56 ± 0.04^b nmol malondialdehyde/mg protein
same,TBARS value,[6]; EK100_5X: 5 mg/kg/day gavage,0.54 ± 0.05^b nmol malondialdehyde/mg protein
same,TBARS value,[6]; EK100_10X: 10 mg/kg/day gavage,0.46 ± 0.04^b nmol malondialdehyde/mg protein
same,Amount of GSH in liver compared to EtOH,[7]; [8],significantly increased
same,Amount of GSH,[7]; EK100_1X: 1 mg/kg/day gavage,49.08 ± 4.78^b nmol/mg protein
same,Amount of GSH,[7]; EK100_5X: 5 mg/kg/day gavage,71.14 ± 4.17^a nmol/mg protein
same,Amount of GSH,[7]; EK100_10X: 10 mg/kg/day gavage,77.21 ± 2.95^a nmol/mg protein
